Assay results from article PMC7725003, “Systematically Studying the Optimal Amino Acid Distribution Patterns of the Amphiphilic Structure by Using the Ultrashort Amphiphiles” (Frontiers in Microbiology, 2020).
Where two headings read alike, the source gives them in different places. Where no end group is shown, it is not given here.

Columns and labels:
[1] = system: E. coli K88
Summary of the method: (§1)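 Peptides were serially diluted in 0.2% BSA and added to mid-logarithmic cells diluted in MHB to 0.5–1 × 10^6 CFU mL^–1. Assays followed an adapted NCCLS protocol.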

[2] = system: E. coli K99
Summary of the method: as §1

[3] = system: Gram-negative bacteria; settings: for TI, Gram-negative bacteria: therapeutic index TI = MHC/GM MIC
Summary of the method: (§2)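 MIC is the lowest peptide concentration giving 95% growth inhibition, read at 492 nm after 24 h incubation at 37°C. Peptides were serially diluted in 0.2% BSA and added to mid-logarithmic cells at 0.5–1 × 10^6 CFU mL^–1 in MHB, following a modified NCCLS method, with more than 3 repeats.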

[4] = system: Gram-positive bacteria; settings: for TI, Gram-positive bacteria: therapeutic index TI = MHC/GM MIC
Summary of the method: as §2

[5] = system: MRSA 43300; type: cell-based, methicillin-resistant S. aureus
Summary of the method: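 Using mid-log cultures at 0.5–1 × 10^6 CFU mL^–1 in MHB, peptides serially diluted in 0.2% BSA were tested over 24 h at 37°C. Inhibition of 95% (A492) set the MIC; >99.9% killing after overnight agar plating set the MBC.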

[6] = system: E. coli ATCC 25922; test: Salt sensitivity assay (MIC); type: cell-based, Escherichia coli; settings: for MIC, FeCl3: 4 μM FeCl3; for MIC, NH4Cl: 6 μM NH4Cl; for MIC, ZnCl2: 8 μM ZnCl2; for MIC, MgCl2: 1 mM MgCl2; for MIC, CaCl2: 2 mM CaCl2; for MIC, KCl: 4.5 mM KCl; for MIC, NaCl: 150 mM NaCl; for MIC, Control: no added salt, three independent assays
Summary of the method: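 Peptides diluted serially in 0.2% BSA solution were combined at identical volumes with mid-logarithmic E. coli ATCC 25922 in MHB (0.5–1 × 10^6 CFU mL^–1) in 96-well plates, with or without a physiological salt. Plates were incubated for 24 h at 37°C. MIC was the lowest concentration inhibiting 95% of growth, measured as absorbance at 492 nm on a microplate reader.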

[7] = system: E. coli 25922; test: Time-kill kinetics; type: cell-based, Escherichia coli; settings: 1 × MIC concentration (Figure 5 legend: 1× MBC); mean of three independent experiments
From the text: The kinetics of the sterilization activity of the peptide was further evaluated. […] The results of the kinetic were the mean values of three independent experiments, and each independent experiment contained three technical replicates.

[8] = LPS binding assay (BODIPY-TR-cadaverine displacement); parameters: species or system Escherichia coli; settings: 1 h 37°C
Experimental: A BODIPY-TR-cadaverine (BC Sigma, United States) displacement assay was used to determine the abilities of the peptides to bind LPS ([Ma et al., 2015]); in this assay, a probe bound to cell-free LPS was self-quenched but fluoresced upon release into solution. The LPS from E. coli O111:B4 (50 μg/mL) was incubated with a BODIPY-TR-cadaverine (5 μg/mL) in Tris buffer (50 mM, pH 7.4) for 4 h. Subsequently, equal volumes of the LPS-probe solution and the peptides (1–64 μM) were incubated in a sterile 96-well black plate for 1 h at 37°C, and the fluorescence was measured on a spectrofluorophotometer (the Infinite 200 pro, Tecan, China) at excitation and emission wavelengths of 580 nm and 620 nm, respectively. Each test was performed independently in triplicate. The values were converted to %ΔF (AU) using the following equation:
where Fobs is the observed fluorescence at a given peptide concentration, F0 is the initial fluorescence of BC with LPS in the absence of peptides, and F100 is the BC fluorescence with LPS cells upon the addition of 10 μg mL^–1 polymyxin B, a prototype LPS binder serving as the positive control.

[9] = system: Gram-negative bacteria; settings: geometric mean of MBCs, 9 Gram-negative strains (Table 2)
[10] = system: Gram-positive bacteria; settings: geometric mean of MBCs, 7 Gram-positive strains (Table 2)
[11] = system: E. coli ATCC 25922; test: Cytoplasmic membrane depolarization (DiSC3-5); type: cell-based, Escherichia coli; settings: DiSC3-5 release, at all concentrations
Experimental: Mid-log phase E. coli ATCC 25922 cells (OD600 = 0.05) were incubated with 0.4 μM DiSC3-5 and 100 mM K ^+ in 5 mM HEPES buffer (pH 7.4, containing 20 mM glucose) until a steady decrease in fluorescence was achieved. The background fluorescence (excitation λ = 622 nm, emission λ = 670 nm) was recorded with an F-4500 fluorescence spectrophotometer (Hitachi, Japan). Subsequently, 2 mL of the cell suspension was added to a 1-cm quartz cuvette and mixed with various concentrations of peptide. The change in fluorescence in C-1, C-2, and C-3 was recorded from 0 to 1,000, 2,000, and 2,500 s, respectively.

[12] = MHB, 24 h 37°C, 95% growth inhibition
[13] = value in brackets, >99.9% of cells killed
[14] = geometric mean of MICs (Table 3)

Substance: RLRLRLRLL-NH2 [L5]
- MIC [1, 12]: 2 µM
- MBC [1, 13]: 4 µM
- MIC [2, 12]: 4 µM
- MBC [2, 13]: 8 µM
- GM MIC ([3]; geometric mean of MICs, 9 Gram-negative strains (Table 2)): 3.17 µM
- TI, Gram-negative bacteria [3]: 80.76
- GM MIC ([4]; geometric mean of MICs, 7 Gram-positive strains (Table 2)): 5.94 µM
- TI, Gram-positive bacteria [4]: 43.10
- MIC [5, 12]: 8 µM
- MBC [5, 13]: 16 µM
- MIC, FeCl3 [6]: 0.5 µM
- MIC, NH4Cl [6]: 0.5 µM
- MIC, ZnCl2 [6]: 0.5 µM
- MIC, MgCl2 [6]: 0.5 µM
- MIC, CaCl2 [6]: 2 µM
- MIC, KCl [6]: 0.5 µM
- MIC, NaCl [6]: 4 µM
- MIC, Control [6]: 2 µM
- time to obliterate the growth of 99.99% of bacteria [7]: ≤ 3 min
- LPS binding efficiency ([8]; at 16 μM peptide): ~80%
- GM MBC [9]: 6.35 µM
- GM MBC [10]: 11.89 µM

Substance: RWRWRWRWW-NH2 [W5]
- GM, Gram-negative bacteria [3, 14]: 2.72 µM
- TI, Gram-negative bacteria [3]: 94.12
- GM, Gram-positive bacteria [4, 14]: 2.00 µM
- TI, Gram-positive bacteria [4]: 128.00
- MBC ([5]; 43300, 24 h): 4 µM
- MIC ([5]; 43300, 24 h): 2 µM
- MIC, FeCl3 [6]: 4 µM
- MIC, NH4Cl [6]: 4 µM
- MIC, ZnCl2 [6]: 4 µM
- MIC, MgCl2 [6]: 2 µM
- MIC, CaCl2 [6]: 4 µM
- MIC, KCl [6]: 4 µM
- MIC, NaCl [6]: 4 µM
- MIC, Control [6]: 2 µM
- time to obliterate the growth of 99.99% of bacteria [7]: ≤ 0.25 min
- LPS binding efficiency ([8]; at 32 μM peptide): ~80%
- time to cytoplasmic membrane depolarization / highest fluorescence intensity [11]: ≤ 300 s
